The values that follow come from US20230348454A1, “COMPOUNDS AS MODULATORS OF BIS-PHOSPHOGLYCERATE MUTASE FOR THE TREATMENT OF SICKLE CELL DISEASE” (Genzyme Corporation, priority 2020, published 2023).

Molecules are shown by their SMILES.

The first assay addresses T1, hBPGM (Homo sapiens, UniProt P07738).
T1 sequence (P07738 1-259): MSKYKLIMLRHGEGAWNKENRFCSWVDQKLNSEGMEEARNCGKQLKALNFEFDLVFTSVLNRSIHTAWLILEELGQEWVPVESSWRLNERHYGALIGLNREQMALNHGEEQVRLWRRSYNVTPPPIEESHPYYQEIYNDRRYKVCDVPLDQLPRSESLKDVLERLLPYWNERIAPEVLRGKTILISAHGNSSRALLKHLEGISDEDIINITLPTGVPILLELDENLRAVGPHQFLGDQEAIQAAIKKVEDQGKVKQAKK
As to the kind of experiment: BPGM synthase assay. The assay is classed as biochemical. Conditions: Table 3; read-out: hBPGM Synthase IC50. The procedure: The following materials were used in this assay: deionized water; Bisphosphoglycerate mutase (BPGM; Standard Buffer: 50 mM Tris, 0.01% Tween 20, pH 7.4); BPGM Reaction Buffer (50 mM Tris, 0.01% Tween 20, 3.23 mM KH2PO4, pH 7.4); dithiothreitol (DTT; Stock solution: 100 mM in Standard Buffer); 384-Well Black Assay Plate (Corning, P/N 3575); DMSO; BPGM Stock Solution (500 nM in BPGM Standard Buffer); Glyceraldehyde 3-phosphate dehydrogenase (GAPDH; Stock Solution: 40 U/mL in 20 mM Tris-HCL Buffer with 20% Glycerol, 1 mM EDTA, 1 mM DTT); Glyceraldehyde 3-phosphate (GAP; Stock Solution: 20 mM in BPGM Standard Buffer); 3-PG Stock Solution (500 μM in BPGM Standard Buffer); Nicotinamide adenine dinucleotide (NAD; Stock Solution: 50 mM in BPGM Standard Buffer); Koningic Acid (1 mM Stock in DMSO); Resazurin Stock Solution (10 mM in DMSO); Diaphorase Stock Solution (40 U/mL in BPGM Standard Buffer); DTT Reaction Buffer (1 mM DTT in BPGM Reaction Buffer); Enzyme Solution (5 nM BPGM, 0.4 U/mL GAPDH in DTT Reaction Buffer); GAPDH Solution (0.4 U/mL GAPDH in DTT Reaction Buffer); Substrate Solution (2 mM NAD, 20 μM 3PG, 800 μM GAP in DTT Reaction Buffer); and Resazurin Solution (5 U/mL Diaphorase, 500 μM Resazurin in BPGM Standard Buffer).
To the assay plate was added Enzyme Solution (20 uL) to columns 2-22 and 24 of the assay plate. To columns 1 and 23 was added GAPDH Solution (20 uL). A separate compound plate was prepared at the desired concentrations and all wells were normalized with 5% DMSO. The compound plate was incubated for 30 minutes at RT. Next, the substrate solution (20 μL) was dispensed to all reaction wells and the plate was incubated for 60 minutes at RT. Koningic acid (1 μL) was added and the plate was incubated for 10 minutes at RT. During this time period, the NADH fluorescence was read at ex: 360/em: 460. Next, Resazurin Solution (10 μL) was added to all reaction wells and the plate was incubated for 30 minutes at RT. The resorufin fluorescence was then read at ex:544/em:590.
With `Cc1nc(COc2ncccn2)sc1-c1cccc(-c2cc(F)c(O)c(C#N)c2)n1` [compound 12], the half-maximal inhibitory concentration (IC50) – broadly, the concentration at which inhibition is half-maximal – came out at 256 nM.

Staying with this assay, now noted: Table 6; read-out: huBPGM: synthase Enzyme IC50.
As to `Cc1nc(COc2nccc(C(=O)O)n2)sc1-c1cccc(-c2cc(F)c3nn[nH]c3c2)n1` [Example 118], the IC50 amounted to 28 nM.

As for `Cc1nc(COc2ccccn2)sc1-c1csc(-c2cc(F)c3[nH]nnc3c2F)n1` [Example 82], the IC50 was 3600 nM.

As for `Cc1nc(COc2cccnn2)sc1-c1csc(-c2cc(F)c3[nH]nnc3c2F)n1` [Example 38], the IC50 came out at 36 nM.

For `Cc1nc(C)c(-c2csc(-c3cc(F)c(O)c(F)c3F)n2)s1` [Example 119], the half-inhibitory concentration (IC50) is 2900 nM.

Regarding `Cc1nc(COc2ncccn2)sc1-c1cccc(-c2ccc(C#N)c(O)c2F)n1` [Example 105], the IC50 was determined as 220 nM.

In the case of `COC(=O)NCc1nc(C)c(-c2csc(-c3cc(O)c(-c4nnn[nH]4)cc3F)c2)s1` [Example 184], the IC50 came to 250 nM.

Regarding `Cc1nc(CN2CCCC2=O)sc1-c1cccc(-c2cc(F)c3nn[nH]c3c2F)n1` [Example 26], the IC50 was found to be 110 nM.

Consider `Cc1nc(C)c(-c2cnn(-c3cc(F)c4[nH]nnc4c3F)c2)s1` [Example 37], for which the IC50 came out at 13000 nM.

`Cc1nc(COc2ncccn2)sc1-c1cnn(-c2cc(F)c(O)c(F)c2F)c1` [Example 233]: the IC50 was found to be 3900 nM.

On to `Cc1nc(C(=O)NC2CCC(O)CC2)sc1-c1cccc(-c2cc(F)c3[nH]nnc3c2F)n1` (stereo not shown) [Example 217], for which the concentration for half-maximal inhibition (IC50) was found to be 120 nM.

`Cc1nc(COCCN(C)C)sc1-c1cccc(-c2cc(F)c3nn[nH]c3c2F)n1` [Example 221]: the IC50 worked out at 170 nM.

With `Cc1nc(CO)sc1-c1cccc(-c2cc(F)c3nn[nH]c3c2F)n1` [Example 91], the IC50 was 640 nM.

For the compound `Cc1nc(COc2ncccn2)sc1-c1cccc(-c2cc(F)c(O)c(C#N)c2)n1` [compound 12], the IC50 worked out at 260 nM.

Regarding `Cc1nc(COc2ccccn2)sc1-c1csc(-c2cc(F)c(OP(=O)(O)O)c(F)c2F)n1` [Example 81], the IC50 was 3000 nM.

Turning to `Cc1nc(COCC(C)O)sc1-c1cccc(-c2cc(F)c3nn[nH]c3c2F)n1` (stereo not shown) [Example 237], the IC50 came to 22 nM.

As for `Cc1nc(COc2ncccn2)sc1-c1ccnc(-c2cc(F)c(O)c(C#N)c2)n1` [Example 69], the IC50 was 79 nM.

In the case of `Cc1nc(COC(=O)N(C)C)sc1-c1nc(-c2cc(F)c3nn[nH]c3c2F)cs1` [Example 44], the IC50 worked out at 25 nM.

Take `Cc1nc(COc2ncccn2)sc1-c1cccc(-c2cc(F)c(O)c(F)c2C)n1` [Example 133]: the IC50 turned out to be 4400 nM.

Turning to `Cc1nc(COCC(C)(C)O)sc1-c1cccc(-c2cc(F)c3nn[nH]c3c2)n1` [Example 219], the IC50 came out at 58 nM.

Consider `Cc1nc(CN/C(=N/C#N)N(C)C)sc1-c1cccc(-c2cc(F)c3nn[nH]c3c2F)n1` [Example 45], for which the half-inhibitory concentration (IC50) was determined as 48 nM.

Take `Cc1nc(COc2ncccn2)sc1-c1cccc(-c2ccc(-n3cn[nH]c3=O)cc2)n1` [Example 162]: the IC50 was more than 25000 nM.

For `Cc1nc(CN/C(=N/C#N)N(C)C)sc1-c1cccc(-c2cc(F)c(O)c(F)c2F)n1` [Example 27], the IC50 is 1500 nM.

For `Cc1nc(COCC(C)(C)C)sc1-c1cccc(-c2cc(F)c3nn[nH]c3c2F)n1` [Example 234], the IC50 turned out to be 1300 nM.

In the case of `Cc1nc(Cc2ccccn2)sc1-c1cccc(-c2ccc(C(=O)NS(C)(=O)=O)cc2)c1` [Example 210], the IC50 came to 7500 nM.

Consider `Cc1nc(COC(=O)N2CCC(O)C2)sc1-c1cccc(-c2cc(F)c3nn[nH]c3c2F)n1` (stereo not shown) [Example 85], for which the IC50 is 21 nM.

As for `Cc1nc(COc2ccccn2)sc1-c1cccc(-c2cc(F)c3nn[nH]c3c2F)n1` [Example 110], the IC50 turned out to be 160 nM.

On to `Cc1nc(COc2ncccn2)sc1-c1csc(-c2cc(F)c3[nH]nnc3c2F)n1` [Example 66], for which the IC50 worked out at 16 nM.

With `Cc1nc(C)c(-c2ccn(-c3cc(F)c4[nH]nnc4c3F)n2)s1` [Example 42], the IC50 worked out at 4100 nM.

`Cc1nc(CNC(=O)C(C)(C)C)sc1-c1cccc(-c2cc(F)c(O)c(F)c2F)c1` [Example 146]: the IC50 was determined as 13000 nM.

For `Cc1nnc(-c2cccc(-c3cc(F)c4nn[nH]c4c3F)n2)s1` [Example 232], the concentration for half-maximal inhibition (IC50) turned out to be 2200 nM.
